This note sets out measurements from US9944654B2, “Nargenicin compounds and uses thereof as antibacterial agents” (priority 2014, dated 2018).

Values after ≈ are worked out from the molar mass of the structure shown. Like-named read-outs stand apart in the source and are kept apart here.

The test system of assay [1] is Streptococcus pneumoniae MB6357 (CL 2883). As to the kind of experiment: Nargenicin antibacterial assay (MIC), S. pneumoniae. Format: cell-based. The following applies: Streptococcus pneumoniae, read-out: S. pneumoniae MB2883 (MIC), Isosensitest broth; * = some reduction of growth versus control at […].
Assay [2] has as its target T1, S. aureus DnaE (DNA polymerase III α-subunit homolog from Staphylococcus aureus) (Staphylococcus aureus, UniProt Q5HF71).
T1 construct: SaDnaE (S. aureus DnaE residues 1-1065); 6xHis (N); made in house; host or cells: E. coli BL21-AI
T1 sequence (Q5HF71 1-1065): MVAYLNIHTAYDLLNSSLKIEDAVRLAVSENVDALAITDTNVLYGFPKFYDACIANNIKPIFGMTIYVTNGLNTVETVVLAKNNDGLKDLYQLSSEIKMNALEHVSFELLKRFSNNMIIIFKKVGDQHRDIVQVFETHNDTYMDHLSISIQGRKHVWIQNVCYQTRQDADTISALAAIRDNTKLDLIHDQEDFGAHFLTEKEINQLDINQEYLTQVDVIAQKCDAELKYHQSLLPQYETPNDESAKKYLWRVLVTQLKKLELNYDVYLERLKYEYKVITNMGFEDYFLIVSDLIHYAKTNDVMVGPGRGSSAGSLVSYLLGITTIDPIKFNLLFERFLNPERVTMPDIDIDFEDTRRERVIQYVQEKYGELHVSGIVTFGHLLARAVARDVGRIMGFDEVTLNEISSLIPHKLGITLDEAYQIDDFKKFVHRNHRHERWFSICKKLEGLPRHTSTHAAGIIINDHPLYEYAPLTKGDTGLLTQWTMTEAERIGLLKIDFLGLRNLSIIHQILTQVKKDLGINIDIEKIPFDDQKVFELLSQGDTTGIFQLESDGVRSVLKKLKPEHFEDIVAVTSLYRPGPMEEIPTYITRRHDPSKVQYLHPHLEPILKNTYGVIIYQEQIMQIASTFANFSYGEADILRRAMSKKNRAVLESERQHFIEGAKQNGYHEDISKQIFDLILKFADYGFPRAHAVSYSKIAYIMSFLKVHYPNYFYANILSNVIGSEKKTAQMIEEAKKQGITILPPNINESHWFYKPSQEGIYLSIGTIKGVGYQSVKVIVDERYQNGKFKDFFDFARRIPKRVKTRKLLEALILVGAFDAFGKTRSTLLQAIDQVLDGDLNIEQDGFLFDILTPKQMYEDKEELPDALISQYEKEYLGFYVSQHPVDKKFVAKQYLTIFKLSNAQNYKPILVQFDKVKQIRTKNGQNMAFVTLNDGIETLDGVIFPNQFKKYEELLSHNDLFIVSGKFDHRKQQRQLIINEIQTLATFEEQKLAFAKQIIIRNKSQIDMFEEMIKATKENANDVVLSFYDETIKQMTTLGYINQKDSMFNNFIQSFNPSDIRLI
As to the kind of experiment: biochemical. Type of assay: biochemical. The method in brief: (§1)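 His-tagged E. coli DnaE (residues 1-1160, 0.8 μg/ml) or S. aureus DnaE (residues 1-1065, 0.05 μg/ml) incubated 30 min at 30° C. with activated calf thymus DNA, 0.025 mM dATP/dGTP/dCTP and 0.011 mM 3H-dTTP in Tris pH 7.5/Mg acetate. TCA-precipitated labelled DNA counted.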

Assay [3] relates to Pseudomonas aeruginosa MB5890 (CB1101, efflux-deleted). Description: microbe, parasite or virus in culture. Format: cell-based. Particulars: Pseudomonas aeruginosa, read-out: P. aeruginosa MB5890 efflux-del (MIC), MHII broth; * = some reduction of growth versus control at […].
The target in assay [4] is T2, E. coli DnaE (DNA polymerase III α-subunit from Escherichia coli) (Escherichia coli, UniProt P10443).
T2 construct: EcDnaE (E. coli DnaE residues 1-1160); 6xHis (N); made in house; host or cells: E. coli BL21(DE3)
T2 sequence (P10443 whole entry, the tested form may be a part): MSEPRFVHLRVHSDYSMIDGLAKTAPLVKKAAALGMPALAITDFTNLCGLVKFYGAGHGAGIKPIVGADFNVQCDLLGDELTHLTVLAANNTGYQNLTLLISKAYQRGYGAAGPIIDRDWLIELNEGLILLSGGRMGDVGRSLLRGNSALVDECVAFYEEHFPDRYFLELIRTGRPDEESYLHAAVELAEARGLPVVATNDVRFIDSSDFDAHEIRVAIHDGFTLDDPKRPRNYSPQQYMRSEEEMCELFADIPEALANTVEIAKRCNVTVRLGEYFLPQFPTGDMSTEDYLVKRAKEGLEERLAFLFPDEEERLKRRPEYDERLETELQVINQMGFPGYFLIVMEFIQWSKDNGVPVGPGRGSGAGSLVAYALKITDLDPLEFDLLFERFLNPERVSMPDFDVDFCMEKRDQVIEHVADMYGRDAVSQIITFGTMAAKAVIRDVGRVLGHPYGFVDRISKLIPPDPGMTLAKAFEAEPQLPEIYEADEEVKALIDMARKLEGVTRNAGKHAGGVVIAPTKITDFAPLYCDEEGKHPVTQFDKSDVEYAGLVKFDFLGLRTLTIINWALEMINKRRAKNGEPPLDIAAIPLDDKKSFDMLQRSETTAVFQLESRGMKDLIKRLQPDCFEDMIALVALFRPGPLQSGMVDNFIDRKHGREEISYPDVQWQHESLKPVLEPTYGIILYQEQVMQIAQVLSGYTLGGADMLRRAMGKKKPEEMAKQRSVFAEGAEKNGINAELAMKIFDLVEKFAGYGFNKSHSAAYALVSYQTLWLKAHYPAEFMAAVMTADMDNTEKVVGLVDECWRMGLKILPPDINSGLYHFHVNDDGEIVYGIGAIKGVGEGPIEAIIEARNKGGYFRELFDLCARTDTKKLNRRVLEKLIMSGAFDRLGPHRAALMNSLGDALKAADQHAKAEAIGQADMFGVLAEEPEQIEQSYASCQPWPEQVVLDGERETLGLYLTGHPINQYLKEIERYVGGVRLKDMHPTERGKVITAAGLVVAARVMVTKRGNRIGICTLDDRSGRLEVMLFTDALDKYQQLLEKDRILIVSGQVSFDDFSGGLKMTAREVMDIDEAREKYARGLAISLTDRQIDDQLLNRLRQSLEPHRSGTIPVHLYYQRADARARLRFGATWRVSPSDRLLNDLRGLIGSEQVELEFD
As to the kind of experiment: In vitro DnaE single enzyme assay (E. coli). Type of assay: biochemical. A digest of the protocol: as §1

Assay [5] deals with Escherichia coli MB5747 (LS 883, tolC). As to the kind of experiment: microbe, parasite or virus in culture. Type of assay: cell-based. The following applies: Escherichia coli, read-out: E. coli LS883 tolC (MIC), MHII broth; * = some reduction of growth versus control at […].
In assay [6] the test system is Staphylococcus aureus MB6266 (MRSA COL). As to the kind of experiment: Nargenicin antibacterial assay (MIC), S. aureus. Format: cell-based. Particulars: Staphylococcus aureus, MRSA, read-out: S. aureus COL (MIC), MHII broth + 50% human serum; * = some reduction of growth versus control at […].
Setting [7] is: read-out: S. aureus DnaE IC50 (converted).
[8] abbreviates: read-out: E. coli DnaE IC50 (converted).

Take `CO[C@H]1C[C@H]2[C@@H]3O[C@@H]3[C@H]3[C@H]4O[C@]2(/C(C)=C/[C@@H](C)[C@@H]([C@@H](C)O)OC1=O)[C@@H]3[C@H](O)[C@@H](C)[C@H]4OC(=O)c1ccc[nH]1` [Example 160, (1aS, 1bS,3S,6S,7R,9aS,9bS,10R,11R,12R,13R,13aS,13bR,E)-10-hydroxy-6-((R)-1-hydroxyethyl)-3-methoxy-7,9,11-trimethyl-4-oxo-1 a,lb,2,3,4,6,7,9b,10,11,12,13,13a,13b-tetradecahydro-9a,13-epoxyoxireno[2′,3′:3,4]naphtho[2,1-e]oxecin-12-yl 1H-pyrrole-2-carboxylate]: the MIC in assay [1] is over 128 µg/mL; in assay [3], over 128 µg/mL; in assay [5] it was over 8 µg/mL; in assay [6] it was over 8 µg/mL. Further, the concentration for half-maximal inhibition (IC50) (usually the concentration that gives 50% inhibition) was 4.14 µM in assay [2] (setting [7]) and over 188 µM in assay [4] (E. coli DnaE IC50).
Turning to `CO[C@H]1C[C@H]2C=C[C@H]3[C@H]4O[C@]2(/C(C)=C/[C@@H](C)[C@@H]([C@@H](C)O)OC1=O)[C@@H]3C(=O)C(C)[C@H]4C[N+](=O)[O-]` (stereo partly drawn) [Example 162, (3R,4 S ,7S ,8aS ,10aR,11R,12 S ,14aR,14b S,E)-4-((R)-1-hydroxyethyl)-7-methoxy-1,3,13-trimethyl-12-(nitromethyl)-3 ,4,8,8a,10a,11,12,13-octahydro-11,14b-epoxynaphtho [2,1-e]oxecine-6,14(7H,14aH)-dione], the MIC in assay [1], in assay [3], in assay [5] and in assay [6] was over 128 µg/mL each time. In addition, the results for the IC50 in assay [2] (setting [7]) and in assay [4] (E. coli DnaE IC50) were 17.3 µM and over 216 µM, respectively.
In the case of `CO[C@H]1C[C@H]2C=C[C@H]3[C@H]4O[C@]2(/C(C)=C/[C@@H](C)[C@@H]([C@@H](C)O)OC1=O)[C@@H]3[C@H](O)C(C)[C@@H]4CO` (stereo partly drawn) [Example 163, (3R,4S,7S,8aS,10aR,11R,12R,14R,14aS,14bS,E)-14-hydroxy-4-((R)-1-hydroxyethyl)-12-(hydroxymethyl)-7-methoxy-1,3,13-trimethyl-3,4,8,8a,10a,11,12,13,14,14a-decahydro-11,14b-epoxynaphtho[2,1-e]oxecin-6(7H)-one], the MIC is over 128 µg/mL in assay [1], 8 µg/mL (≈ 18.3 µM) in assay [3], 8 µg/mL (≈ 18.3 µM) in assay [5] and over 128 µg/mL in assay [6]. Further, the 50% inhibitory concentration (IC50) is 0.687 µM in assay [2] (setting [7]) and over 229 µM in assay [4] (E. coli DnaE IC50).
With `CO[C@H]1C[C@H]2C=CC3C4[C@H](O)[C@@H](C)[C@@H](OC(=O)c5cc(-c6cccnc6)c[nH]5)[C@@H]3O[C@]42/C(C)=C/[C@@H](C)[C@@H]([C@@H](C)O)OC1=O` [Example 164, (3R,4S,7S,8aS,11R,12R,13R,14R,14bS,E)-14-hydroxy-4-((R)-1-hydroxyethyl)-7-methoxy-1,3,13-trimethyl-6-oxo-3,4,6,7,8,8a,10a,11,12,13,14,14a-dodecahydro-11,14b-epoxynaphtho[2,1-e]oxecin-12-yl 4-(pyridin-3-yl)-1H-pyrrole-2-carboxylate], the MIC in assay [1] was 32 µg/mL (≈ 54 µM); in assay [3], over 128 µg/mL; in assay [5], 16 µg/mL (≈ 27 µM); in assay [6] it was over 128 µg/mL. Besides, the IC50 was 10.1 µM in assay [2] (S. aureus DnaE IC50) and over 169 µM in assay [4] (E. coli DnaE IC50).
For `COC(=O)/C=C/c1c[nH]c(C(=O)O[C@@H]2[C@H](C)[C@@H](O)[C@@H]3[C@H]4C=CC5C[C@H](OC)C(=O)O[C@H](C(C)O)[C@H](C)/C=C(\C)[C@]53O[C@H]42)c1` (stereo partly drawn) [Example 166], the MIC in assay [1] is over 64 µg/mL; in assay [3] it was over 64 µg/mL; in assay [5] it was 64 µg/mL (≈ 107 µM); in assay [6] it was over 64 µg/mL. Besides, the figures for the IC50 in assay [2] (S. aureus DnaE IC50) and in assay [4] (setting [8]) were 0.3 µM and over 83.4 µM, respectively.
Consider `CO[C@H]1C[C@H]2C=CC3C4[C@H](O)[C@@H](C)[C@@H](OC(=O)c5cc(NC(=O)c6ccccc6)c[nH]5)[C@@H]3O[C@]42/C(C)=C/[C@@H](C)[C@@H]([C@@H](C)O)OC1=O` [Example 167, (3R,4S,7S,8aS,11R,12R,13R,14R,14bS,E)-14-hydroxy-4-((R)-1-hydroxyethyl)-7-methoxy-1,3,13-trimethyl-6-oxo-3,4,6,7,8,8a,10a,11,12,13,14,14a-dodecahydro-11,14b-epoxynaphtho[2,1-e]oxecin-12-yl 4-benzamido-1H-pyrrole-2-carboxylate], for which the MIC in assay [1], in assay [3], in assay [5] and in assay [6] was over 128 µg/mL throughout. The 50% inhibitory concentration (IC50) was 3.15 µM in assay [2] (S. aureus DnaE IC50) and over 158 µM in assay [4] (setting [8]).
As to `CO[C@H]1C[C@H]2C=CC3C4[C@H](O)[C@@H](C)[C@@H](OC(=O)c5cc(NC(C)=O)c[nH]5)[C@@H]3O[C@]42/C(C)=C/[C@@H](C)[C@@H]([C@@H](C)O)OC1=O` [Example 168, (3R,4S,7S,8aS,11R,12R,13R,14R,14bS,E)-14-hydroxy-4-((R)-1-hydroxyethyl)-7-methoxy-1,3,13-trimethyl-6-oxo-3,4,6,7,8,8a,10a,11,12,13,14,14a-dodecahydro-11,14b-epoxynaphtho[2,1-e]oxecin-12-yl 4-acetamido-1H-pyrrole-2-carboxylate], the MIC in assay [1] is over 64 µg/mL; in assay [3] it was over 64 µg/mL; in assay [5], over 128 µg/mL; in assay [6], over 128 µg/mL. Also, the half-maximal inhibitory concentration (IC50) in assay [2] (S. aureus DnaE IC50) is 31.4 µM; in assay [4] (setting [8]), over 87.3 µM.
`CO[C@H]1C[C@H]2C=CC3C4[C@H](O)[C@@H](C)[C@@H](OC(=O)c5ccc[nH]5)[C@@H]3O[C@]42/C(C)=C/[C@@H](C)C([C@@H](C)O)NC1=O` (stereo partly drawn) [Example 170]: the MIC was over 128 µg/mL in assay [1], over 128 µg/mL in assay [3], 128 µg/mL (≈ 249 µM) in assay [5] and over 128 µg/mL in assay [6]. Further, the results for the IC50 in assay [2] (S. aureus DnaE IC50) and in assay [4] (setting [8]) were 2.53 µM and over 194 µM, respectively.
Take `CO[C@H]1C[C@H]2C=C[C@H]3[C@H]4O[C@]2(/C(C)=C/[C@@H](C)[C@@H](C(C)=O)OC1=O)[C@@H]3C(=O)[C@@H](C)[C@H]4OC(=O)c1ccc[nH]1` [Example 171]: the MIC in assay [1] is over 128 µg/mL; in assay [3], over 128 µg/mL; in assay [5] it was over 8 µg/mL; in assay [6], over 8 µg/mL. For the same compound, the concentration for half-maximal inhibition (IC50) in assay [2] (S. aureus DnaE IC50) was 6.84 µM; in assay [4] (setting [8]), 176 µM.
For the compound `CO[C@H]1C[C@H]2C=CC3C4[C@H](O)[C@@H](C)[C@@H](OC(=O)c5ccc(OC(C)=O)n5O)[C@@H]3O[C@]42/C(C)=C/[C@@H](C)[C@@H]([C@@H](C)O)OC1=O` [Example 173], the MIC is 128 µg/mL (≈ 217 µM) in assay [1], 16 µg/mL (≈ 27.1 µM) in assay [3], 8 µg/mL (≈ 13.6 µM) in assay [5] and over 128 µg/mL in assay [6]. In addition, the values for the IC50 in assay [2] (S. aureus DnaE IC50) and in assay [4] (setting [8]) were 0.543 µM and over 170 µM, respectively.
Regarding `C/C1=C\[C@@H](C)[C@@H](C(C)O)OC(=O)C(O)CC2C=C[C@H]3[C@H]4O[C@@]12[C@@H]3[C@H](O)[C@@H](C)[C@H]4OC(=O)c1ccc[nH]1` (stereo partly drawn) [Example 174], the MIC in assay [1] was over 128 µg/mL; in assay [3] it was over 128 µg/mL; in assay [5] it was 8 µg/mL (≈ 15.9 µM); in assay [6], 8 µg/mL. Also, the results for the 50% inhibitory concentration (IC50) in assay [2] (S. aureus DnaE IC50) and in assay [4] (setting [8]) were 0.0199 µM and 21.9 µM, respectively.
